What was measured:
[1] = biological target: T1, BRD4 bromo domain 2 [BRD4(2)] (Homo sapiens, UniProt O60885); experiment: BRD4/acetylated peptide H4 binding assay (TR-FRET), BRD4 bromo domain 2; settings: inhibition of BRD4(2)/Ac-H4 peptide interaction
T1 construct: N-terminally His6-tagged BRD4(2) (amino acids 357-445); made in house; host or cells: E. coli
From the text: (§1) Protein-Protein Interaction Assay: BRD4/Acetylated Peptide H4 Binding Assay
To assess the BRD4(2) binding strength of the substances described in this application, the ability thereof to inhibit the interaction between BRD4(2) and acetylated histone H4 in a dose-dependent manner was quantified.
(§2) For this purpose, a time-resolved fluorescence resonance energy transfer (TR-FRET) assay was used, which measures the binding between N-terminally His6-tagged BRD4(2) (amino acids 357-445) and a synthetic acetylated histone H4 (Ac-H4) peptide with sequence SGRGK(Ac)GGK(Ac)GLGK(Ac)GGAK(Ac)RHRKVLRDNGSGSK-biotin. The recombinant BRD4(2) protein produced in-house according to Filippakopoulos et al., Nature, 2010, 468:1119-1123 and Cell, 2012, 149:214-231, was expressed in E. coli and purified by means of (Ni-NTA) affinity and (Sephadex G-75) size exclusion chromatography. The Ac-H4 peptide can be purchased, for example, from Biosyntan (Berlin, Germany).
(§3) In the assay, typically 11 different concentrations of each substance (0.1 nM, 0.33 nM, 1.1 nM, 3.8 nM, 13 nM, 44 nM, 0.15 μM, 0.51 μM, 1.7 μM, 5.9 μM and 20 μM) were analysed as duplicates on the same microtitre plate. For this purpose, 100-fold concentrated solutions in DMSO were prepared by serial dilutions (1:3.4) of a 2 mM stock solution into a clear, 384-well microtitre plate (Greiner Bio-One, Frickenhausen, Germany). From this, 50 nl were transferred into a black test plate (Greiner Bio-One, Frickenhausen, Germany). The test was started by the addition of 2 μl of a 2.5-fold concentrated BRD4(2) solution (final concentration typically 100 nM in the 5 μl of reaction volume) in aqueous assay buffer [50 mM HEPES pH 7.5, 50 mM sodium chloride (NaCl); 50 mM potassium fluoride (KF); 0.25 mM CHAPS and 0.05% serum albumin (BSA)] to the substances in the test plate. This was followed by a 10-minute incubation step at 22° C. for the pre-equilibration of putative complexes between BRD4(2) and the substances. Subsequently, 3 μl of a 1.67-fold concentrated solution (in assay buffer) consisting of Ac-H4 peptide (83.5 nM) and TR-FRET detection reagents [83.5 nM anti-6His-XL665 (Cisbio Bioassays, Codolet, France) and 12.52 nM streptavidin-Eu), (Perkin Elmer, #W1024)] in assay buffer were added.
(§4) The mixture was then incubated in the dark at 22° C. for one hour and then at 4° C. for at least 3 hours and for no longer than overnight. The formation of BRD4(2)/Ac-H4 complexes was determined by the measurement of the resonance energy transfer from the streptavidin-Eu chelate to the anti-6His-XL665 antibody present in the reaction. For this purpose, the fluorescence emission was measured at 620 nm and 665 nm after excitation at 330-350 nm in a TR-FRET measuring instrument, for example a Rubystar or Pherastar (both from BMG Lab Technologies, Offenburg, Germany) or a Viewlux (Perkin-Elmer). The ratio of the emissions at 665 nm and at 622 nm was taken as an indicator of the amount of BRD4(2)/Ac-H4 complexes formed.
(§5) The data (ratios) obtained were normalized, with 0% inhibition corresponding to the mean from the measurements for a set of controls (typically 32 data points) in which all the reagents were present. In these, in place of test substances, 50 nl of DMSO (100%) were used. Inhibition of 100% corresponded to the mean from the measurements for a set of controls (typically 32 data points) in which all the reagents except BRD4(2) were present. The IC50 was determined by regression analysis based on a 4-parameter equation (minimum, maximum, IC50, Hill; Y=max+(min−max)/(1+(X/IC50)Hill)).

[2] = biological target: T2, BRD4 bromo domain 1 [BRD4(1)] (Homo sapiens, UniProt O60885); experiment: BRD4/acetylated peptide H4 binding assay (TR-FRET), BRD4 bromo domain 1; settings: inhibition of BRD4(1)/Ac-H4 peptide interaction
T2 construct: N-terminally His6-tagged BRD4(1) (amino acids 67-152); made in house; host or cells: E. coli
From the text: as §1
To assess the BRD4(1) binding strength of the substances described in this application, the ability thereof to inhibit the interaction between BRD4(1) and acetylated histone H4 in a dose-dependent manner was quantified.
as §2, with “BRD4(1)” for “BRD4(2)”, “67-152)” for “357-445)”, “GRGK(Ac)GGK(Ac)GLGK(Ac)GGAK(Ac)RHGSGSK-biotin.” for “SGRGK(Ac)GGK(Ac)GLGK(Ac)GGAK(Ac)RHRKVLRDNGSGSK-biotin.”
as §3, with “concentrated BRD4(1)” for “concentrated BRD4(2)”, “typically 10” for “typically 100”, “chloride (NaCl),” for “chloride (NaCl); 50 mM potassium fluoride (KF);”, “between BRD4(1)” for “between BRD4(2)”, “substances.” for “substances. Subsequently, 3 μl of a 1.67-fold concentrated solution (in assay buffer) consisting of Ac-H4 peptide (83.5 nM) and TR-FRET detection reagents [83.5 nM anti-6His-XL665 (Cisbio Bioassays, Codolet, France) and 12.52 nM streptavidin-Eu), (Perkin Elmer, #W1024)] in assay buffer were added.”
as §4, with “BRD4(1)/Ac-H4” for “BRD4(2)/Ac-H4”, “cryptate” for “chelate”
as §5, with “BRD4(1)” for “BRD4(2)”

| SMILES | IC50 [1] | IC50 [2] |
| --- | --- | --- |
| C[C@@H]1C(=O)N(C)c2ccc(Nc3cccc(S(=O)(=O)N4CC5(CCC5)C4)c3)nc2N1C1CCN(C(=O)OC(C)(C)C)CC1 [Example 60, tert-butyl 4-[(3R)-6-{[3-(2-azaspiro[3.3]hept-2-ylsulphonyl)phenyl]-amino}-1,3-dimethyl-2-oxo-2,3-dihydropyrido[2,3-b]pyrazin-4(1H)-yl]piperidine-1-carboxylate] | 0.265 µM | 0.2 µM |
| COc1ccc(Nc2ccc3c(n2)N(C2CCOCC2)[C@H](C)C(=O)N3C)cc1C(=O)N[C@H]1CC[C@H](N2CCN(CC3CC3)CC2)CC1 [Example 82, N-{trans-4-[4-(cyclo-propylmethyl)piperazin-1-yl]cyclohexyl}-5-{[(3R)-1,3-dimethyl-2-oxo-4-(tetrahydro-2H-pyran-4-yl)-1,2,3,4-tetrahydropyrido[2,3-b]pyrazin-6-yl]amino}-2-methoxybenzamide] | 0.337 µM | 0.218 µM |
| COc1c(Nc2ccc3c(n2)N(C2CCOCC2)[C@H](C)C(=O)N3C)cccc1C(=O)N[C@H]1CC[C@H](N2CCN(CC3CC3)CC2)CC1 [Example 91, N-{trans-4-[4-(cyclo-propylmethyl)piperazin-1-yl]cyclohexyl}-3-{[(3R)-1,3-dimethyl-2-oxo-4-(tetrahydro-2H-pyran-4-yl)-1,2,3,4-tetrahydropyrido[2,3-b]pyrazin-6-yl]amino}-2-methoxybenzamide] | 0.325 µM | 0.439 µM |
| COCCN1c2nc(Nc3cccc(C(=O)NC4CCN(C)CC4)c3)ccc2N(C)C(=O)[C@@H]1C (stereo in doubt) [Example 120, 3-{[(3S)-4-(2-methoxyethyl)-1,3-dimethyl-2-oxo-1,2,3,4-tetrahydropyrido[2,3-b]pyrazin-6-yl]amino}-N-(1-methylpiperidin-4-yl)benzamide] | 4.46 µM | 6.87 µM |
| C[C@@H]1C(=O)N(C)c2ccc(Nc3cccc(S(=O)(=O)N4CCN(C)CC4)c3)cc2N1C1CCOCC1 [Example 71, (3R)-1,3-dimethyl-6-({3-[(4-methylpiperazin-1-yl)sulphonyl]phenl}-amino)-4-(tetrahydro-2H-pyran-4-yl)-3,4-dihydroquinoxalin-2(1H)-one] | 0.315 µM | 0.232 µM |
| COc1ccc(Nc2ccc3c(n2)N(C2CCOCC2)[C@H](C)C(=O)N3C)cc1C(=O)NC1CCN(C)CC1 [Example 81, 5-{[(3R)-1,3-dimethyl-2-oxo-4-(tetrahydro-2H-pyran-4-yl)-1,2,3,4-tetrahydropyrido[2,3-b]pyrazin-6-yl]amino}-2-methoxy-N-(1-methylpiperidin-4-yl)benzamide] | 0.227 µM | 0.21 µM |
| COCCN1c2nc(Nc3cccc(C(=O)N4CCN(C)CC4)c3)ccc2N(C)C(=O)[C@@H]1C (stereo in doubt) [Example 118, (3S)-4-(2-methoxyethyl)-1,3-dimethyl-6-({3-[(4-methylpiperazin-1-yl)carbonyl]phenyl}amino)-3,4-dihydropyrido[2,3-b]pyrazin-2(1H)-one] | > 40 µM | 18.2 µM |

The next lines start with the values.

| IC50 [1] | IC50 [2] | SMILES |
| --- | --- | --- |
| 0.227 µM | 0.218 µM | COc1ccc(Nc2ccc3c(n2)N(C2CCOCC2)[C@H](C)C(=O)N3C)cc1C(=O)N1CCN(C)CC1 [Example 83, (3R)-6-({4-methoxy-3-[(4-methylpiperazin-1-yl)carbonyl]phenyl}-amino)-1,3-dimethyl-4-(tetrahydro-2H-pyran-4-yl)-3,4-dihydropyrido[2,3-b]pyrazin-2(1H)-one] |
| 0.158 µM | 0.163 µM | Cc1ccc(Nc2ccc3c(n2)N(C2CCOCC2)[C@H](C)C(=O)N3C)cc1S(N)(=O)=O [Example 63, 5-{[(3R)-1,3-dimethyl-2-oxo-4-(tetrahydro-2H-pyran-4-yl)-1,2,3,4-tetrahydropyrido[2,3-b]pyrazin-6-yl]amino}-2-methylbenzene-sulphonamide] |
| 0.155 µM | 0.268 µM | C[C@@H]1C(=O)N(C)c2ccc(Nc3cccc(C(=O)NCCN4CCN(C)CC4)c3)nc2N1C1CCCCC1 [Example 84, 3-{[(3R)-4-cyclohexyl-1,3-dimethyl-2-oxo-1,2,3,4-tetrahydropyrido[2,3-b]pyrazin-6-yl]amino}-N-[2-(4-methlpiperazin-1-yl)ethyl]benzamide] |
| 0.063 µM | 0.496 µM | C[C@@H]1C(=O)N(C)c2ccc(Nc3cccc(S(=O)(=O)N(C)C)c3)cc2N1Cc1ccccc1 [Example 69, 3-{[(3R)-4-benzyl-1,3-dimethyl-2-oxo-1,2,3,4-tetrahydroquinoxalin-6-yl]amino}-N,N-dimethyl-benzenesulphonamide] |
| 0.076 µM | 0.433 µM | C[C@@H]1C(=O)N(C)c2ccc(Nc3cccc(S(=O)(=O)N(C)C)c3)cc2N1C1CCN(C(=O)OC(C)(C)C)CC1 [Example 68, tert-butyl 4-[(2R)-7-{[3-(dimethylsulphamoyl)-phenyl]amino}-2,4-dimethyl-3-oxo-3,4-dihydroquinoxalin-1(2H)-yl]piperidine-1-carboxylate] |
| 0.189 µM | 0.314 µM | CC(C)N1CCN(C(=O)c2cccc(Nc3ccc4c(n3)N(C3CCCCC3)[C@H](C)C(=O)N4C)c2)CC1 [Example 85] |
